The nature of assay [1]: luciferase reporter signal suppression in cells – H4 neuroglioma cells, luminescence, dose response (AID 1990). The class given is functional, cell-based.
For another assay, the system named is Streptococcus. Nature of the assay: GAS UMAA2166 growth inhibition – luminescence, BacTiterGlo, counter-screen for streptokinase expression inhibitor project, dose response (AID 1915).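 Also: potency for reduction of bacterial viability or growth.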 The format is functional, organism-based. In general terms: Counterscreens check selectivity or assay interference.
Assay [2] in a line: Luminescence Cell-Based Dose Response HTS to Identify Inhibitors of 5'UTR Stem-Loop Driven Prion Protein mRNA Translation in H4 Neuroglioblastoma Cells. [Related pubchem assays: 1827 (Project Summary), 1813 (Primary HTS)]. The class given is functional.
Assay [3] is described as follows: Luminescence-based dose response cell-based high throughput screening assay for cytotoxic compounds using the IEC-6 intestinal epithelial cell line. [Related pubchem assays: 1858 (Summary AID.), 1825 (Counterscreen.), 1907 (Confirmation screen.)]. The format is functional.
Assay [4] has as its target Likely tRNA 2'-phosphotransferase (Candida albicans (strain SC5314 / ATCC MYA-2876) (Yeast), UniProt Q5A7N4). Nature of the assay: inhibition of Candida TPT1 enzyme activity – biochemical, fluorescence polarization, dose response (AID 2160). On the technique in general: Fluorescence polarisation rises when a labelled molecule tumbles more slowly, as on binding a larger partner.

Assay [5] has as its target 26S proteasome non-ATPase regulatory subunit 14 (Homo sapiens, UniProt O00487). The assay can be described thus: inhibition of proteasome subunit RPN11 – biochemical, fluorescence polarization, uHTS hits, confirmation (AID 602368). The class given is functional.
The target of assay [6] is Guanyl-specific ribonuclease T1 (Aspergillus oryzae (strain ATCC 42149 / RIB 40), UniProt P00651). Nature of the assay: inhibition of ribonuclease T1 activity – biochemical, fluorescence polarization, 1536-well, counter-screen for TPT1 inhibitor project, dose response (AID 2167).
In another assay the test system is HeLa. The assay can be described thus: viability loss in HeLa cells – cell-based, 24 h, cherry-picked samples, cytotoxicity control, dose response (AID 504726).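 Also: potency for cytotoxicity as loss of luminescence signal.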 The following applies: Homo sapiens. The format is functional.
In assay [7] the target is T1, Tyrosine-protein phosphatase non-receptor type 7 (Homo sapiens, UniProt P35236).
T1 sequence (P35236 whole entry): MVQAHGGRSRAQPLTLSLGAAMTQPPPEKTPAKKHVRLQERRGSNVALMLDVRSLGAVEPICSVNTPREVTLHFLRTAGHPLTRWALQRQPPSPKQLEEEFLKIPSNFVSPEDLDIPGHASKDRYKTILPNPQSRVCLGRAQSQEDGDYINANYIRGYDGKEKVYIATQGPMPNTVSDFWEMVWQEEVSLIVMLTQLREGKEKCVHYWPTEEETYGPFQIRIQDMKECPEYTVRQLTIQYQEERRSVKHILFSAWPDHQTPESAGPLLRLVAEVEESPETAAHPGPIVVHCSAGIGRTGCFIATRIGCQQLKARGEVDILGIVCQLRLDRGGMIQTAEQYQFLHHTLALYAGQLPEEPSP
Nature of the assay: redox-active compounds inhibiting HePTP phosphatase – biochemical, fluorescence, mechanism study (AID 2068). The class given is functional.

Assay [8] addresses Small ubiquitin-related modifier 1 (Homo sapiens, UniProt P63165). Nature of the assay: SUMO1 protein-protein binding blockers, potency – biochemical, FRET, dose response (AID 624383). The format is functional. The following applies: read-out: IC50_Mean.
A short description of assay [9]: Trypanosoma cruzi growth suppression in host cells – NIH3T3 host cells, beta-gal luminescence, confirmation (AID 2044).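 Also: intracellular parasites grown in NIH/3T3 mouse fibroblasts as host cells; luminescent beta-galactosidase reporter signal from transgenic T. cruzi replicating inside host cells; inhibitors lower the luminescence signal.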 The class given is functional, cell-based.
The target of assay [10] is T2, Sentrin-specific protease 6 (Homo sapiens, UniProt Q9GZR1).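 Also: Luminescence-based dose-response confirmatory assay of SENP6 inhibition, following up an ultra-high-throughput screen.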
T2 sequence (Q9GZR1 whole entry): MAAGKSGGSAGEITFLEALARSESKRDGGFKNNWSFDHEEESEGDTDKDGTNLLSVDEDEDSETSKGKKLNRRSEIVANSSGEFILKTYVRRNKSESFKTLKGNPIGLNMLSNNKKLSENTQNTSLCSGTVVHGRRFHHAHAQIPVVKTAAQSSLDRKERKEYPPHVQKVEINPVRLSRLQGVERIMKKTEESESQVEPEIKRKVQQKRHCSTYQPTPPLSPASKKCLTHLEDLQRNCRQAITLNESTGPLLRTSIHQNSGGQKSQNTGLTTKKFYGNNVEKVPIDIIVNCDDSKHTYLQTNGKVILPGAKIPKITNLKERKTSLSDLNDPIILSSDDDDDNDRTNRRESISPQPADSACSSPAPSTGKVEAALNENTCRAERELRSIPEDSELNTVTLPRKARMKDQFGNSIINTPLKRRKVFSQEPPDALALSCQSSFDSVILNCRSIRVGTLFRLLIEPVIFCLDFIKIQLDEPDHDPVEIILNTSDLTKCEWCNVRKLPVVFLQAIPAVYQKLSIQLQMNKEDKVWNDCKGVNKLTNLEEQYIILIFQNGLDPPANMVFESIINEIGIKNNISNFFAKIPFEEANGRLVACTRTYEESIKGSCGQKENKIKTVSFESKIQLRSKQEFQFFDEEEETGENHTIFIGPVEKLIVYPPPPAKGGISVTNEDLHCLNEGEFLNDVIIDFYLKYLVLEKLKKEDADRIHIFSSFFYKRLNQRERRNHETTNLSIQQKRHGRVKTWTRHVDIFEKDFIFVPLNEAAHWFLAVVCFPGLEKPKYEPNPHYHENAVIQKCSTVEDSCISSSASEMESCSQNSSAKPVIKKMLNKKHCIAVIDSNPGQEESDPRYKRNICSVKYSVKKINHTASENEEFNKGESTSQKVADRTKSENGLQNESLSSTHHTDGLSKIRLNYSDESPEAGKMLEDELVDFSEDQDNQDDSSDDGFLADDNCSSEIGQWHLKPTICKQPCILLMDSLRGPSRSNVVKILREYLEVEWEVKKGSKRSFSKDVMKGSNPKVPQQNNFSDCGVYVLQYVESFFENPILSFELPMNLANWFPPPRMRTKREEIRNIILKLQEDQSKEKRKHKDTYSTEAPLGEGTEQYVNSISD
The format is functional.

In assay [11] the target is T3, Sentrin-specific protease 8 (Homo sapiens, UniProt Q96LD8).
T3 sequence (Q96LD8 whole entry): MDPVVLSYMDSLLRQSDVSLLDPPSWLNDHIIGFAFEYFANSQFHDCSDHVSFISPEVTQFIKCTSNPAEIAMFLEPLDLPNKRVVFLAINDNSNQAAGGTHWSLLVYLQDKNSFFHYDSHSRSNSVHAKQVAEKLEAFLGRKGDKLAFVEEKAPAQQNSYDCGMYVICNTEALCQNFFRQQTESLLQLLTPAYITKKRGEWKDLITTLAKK
The class given is functional.

Active and inactive are the calls of the source. Bounds are passed on as bounds.

Chain of Small ubiquitin-related modifier 1 (P63165 whole entry): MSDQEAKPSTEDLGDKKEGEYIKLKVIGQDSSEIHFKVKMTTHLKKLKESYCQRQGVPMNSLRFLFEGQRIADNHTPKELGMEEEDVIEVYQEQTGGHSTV
Chain of Likely tRNA 2'-phosphotransferase (Q5A7N4 whole entry): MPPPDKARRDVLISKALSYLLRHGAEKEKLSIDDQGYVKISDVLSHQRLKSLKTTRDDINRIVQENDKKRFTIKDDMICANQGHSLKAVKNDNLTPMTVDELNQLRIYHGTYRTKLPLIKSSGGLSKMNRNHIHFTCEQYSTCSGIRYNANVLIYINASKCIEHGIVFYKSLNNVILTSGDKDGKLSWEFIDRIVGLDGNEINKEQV
Chain of Guanyl-specific ribonuclease T1 (P00651 whole entry): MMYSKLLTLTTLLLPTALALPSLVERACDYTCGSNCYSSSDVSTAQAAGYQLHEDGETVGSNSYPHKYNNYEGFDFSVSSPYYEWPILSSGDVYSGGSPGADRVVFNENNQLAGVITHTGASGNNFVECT
Chain of 26S proteasome non-ATPase regulatory subunit 14 (O00487 whole entry): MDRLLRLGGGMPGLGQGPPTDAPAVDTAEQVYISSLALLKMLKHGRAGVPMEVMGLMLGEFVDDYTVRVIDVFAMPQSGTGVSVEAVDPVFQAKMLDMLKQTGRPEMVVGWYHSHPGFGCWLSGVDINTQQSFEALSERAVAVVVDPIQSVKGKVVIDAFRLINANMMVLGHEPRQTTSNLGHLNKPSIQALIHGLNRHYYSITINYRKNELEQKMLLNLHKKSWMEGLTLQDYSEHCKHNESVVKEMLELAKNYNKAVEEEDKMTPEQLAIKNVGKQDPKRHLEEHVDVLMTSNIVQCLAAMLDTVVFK

Consider `O=C1c2ccccc2C(=O)c2[nH]c(O)nc21`, for which the concentration for a half-maximal effect (EC50) in [1] was 5.93 µM (active); in the assay with Streptococcus it was > 150 µM (not active); in assay [2], 8.19 µM (active). Also, the IC50 in [3] was 1.81 µM (active).

Regarding `NS(=O)(=O)c1cc(C(=O)NC2CCSc3ccccc32)ccc1Cl` (stereo not drawn), the IC50 in [4] is 4.4 µM (active); in assay [5], 0.763 µM (active); in assay [6], > 55.7 µM (not active); in assay [7], 0.066 µM (active); in assay [8], 2.29 µM (active). Also, the AC50 in the assay with HeLa was > 350 µM (inactive).

As to `COC(=O)c1cc(C)nc2c1C(=O)C(=O)C=C2N1CCOCC1`, the EC50 in [9] is 2.34 µM (active).

Take `CCOC(=O)C1=C(C)OC2(O)c3ccccc3C(=O)C12O` (stereo not drawn): the IC50 was 2.7 µM (active) in [10] and 0.428 µM (active) in assay [11].

By EC50 is commonly meant the concentration that produces a half-maximal response. The term AC50 denotes the midpoint of the concentration-response curve, whichever way the signal moves.

Values taken from ChEMBL document CHEMBL1201862, “PubChem BioAssay data set” (2004).
